Source: patent US9708336B2, “Metallo-beta-lactamase inhibitors” (priority 2014, dated 2017)
Read-outs that look alike come from different tables or passages of the source.

Experiments:
[1] = biological target: NDM-1 (Klebsiella pneumoniae, UniProt C7C422); test: biochemical; assay type: biochemical; conditions: fluorescence assay with CCF2-FA substrate; read-out: NDM-1 IC50
[2] = tested on: Klebsiella pneumoniae expressing VIM-1 (IHMA599644); test: Antibiotic potentiation activity: synergistic concentration (MITC95) with imipenem, OD600 growth; assay type: cell-based; conditions: concentration giving 95% inhibition of bacterial growth
Method in brief: (§1)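 Compound activity is tested with and without imipenem, which is present at 4 μg/ml (or 1 μg/ml) in the well. Bacteria in 1.1× CAMHB are incubated 22–24 h at 35 °C; absorbance gives the growth endpoint.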

[3] = tested on: Escherichia coli expressing NDM-1 (CLB30005); test: as above; assay type: cell-based; conditions: concentration giving 95% inhibition of bacterial growth
Method in brief: as §1

[4] = tested on: Serratia marcescens expressing IMP-1 (CL5741); test: as above; assay type: cell-based; conditions: concentration giving 95% inhibition of bacterial growth
Method in brief: as §1

[5] = biological target: IMP-1 (Serratia marcescens, UniProt P52699); test: biochemical; assay type: biochemical; conditions: fluorescence assay with CCF2-FA substrate; read-out: IMP-1 IC50
Sequence of IMP-1 (P52699 whole entry, looked up): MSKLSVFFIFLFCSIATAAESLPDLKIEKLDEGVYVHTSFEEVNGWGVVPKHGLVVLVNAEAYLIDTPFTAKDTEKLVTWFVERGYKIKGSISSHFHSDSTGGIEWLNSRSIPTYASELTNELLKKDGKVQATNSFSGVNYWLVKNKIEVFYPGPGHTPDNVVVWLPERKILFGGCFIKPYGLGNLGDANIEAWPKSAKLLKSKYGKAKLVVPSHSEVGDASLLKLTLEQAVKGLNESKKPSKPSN

[6] = biological target: VIM-1 (Pseudomonas aeruginosa (strain ATCC 15692 / DSM 22644 / CIP 104116 / JCM 14847 / LMG 12228 / 1C / PRS 101 / PAO1), UniProt A0A0F7KYQ8); test: Enzyme activity: determination of IC50, fluorescence assay with CCF2-FA substrate (VIM-1); assay type: biochemical
[7] = fluorescence assay with CCF2-FA substrate, read-out: VIM-1 IC50

Sequence of NDM-1 (C7C422 whole entry, looked up, species assumed): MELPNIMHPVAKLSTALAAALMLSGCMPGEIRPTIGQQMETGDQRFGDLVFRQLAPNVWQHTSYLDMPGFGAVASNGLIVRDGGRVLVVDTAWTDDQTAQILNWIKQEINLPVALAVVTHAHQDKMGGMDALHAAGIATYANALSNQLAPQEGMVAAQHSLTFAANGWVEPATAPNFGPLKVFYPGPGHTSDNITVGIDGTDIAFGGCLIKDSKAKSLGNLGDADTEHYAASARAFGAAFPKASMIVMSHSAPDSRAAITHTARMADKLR

Structure (SMILES)	IC50 [1] [nM]	Klebsiella pneumoniae expressing VIM-1 (IHMA 599644) MITC95 [2] [µM]	Escherichia coli expressing NDM-1 (CLB 30005) MITC95 [3] [µM]	Serratia marcescens expressing IMP-1 (CL5741) MITC95 [4] [µM]	IC50 [5] [nM]	IC50 [6, 7] [nM]	IC50 ([6]; VIM-1 IC50, fluorescence assay with CCF2-FA substrate) [nM]
NS(=O)(=O)c1cccc(-c2ccc(-c3ccn[nH]3)cc2)c1-c1nn[nH]n1 [Example 50, 4′-(1H-pyrazol-5-yl)-2-(2H-tetrazol-5-yl)biphenyl-3-sulfonamide]	2.71	200	2.344	12.5	37.9	89.1	–
COC1CCN(C(=O)c2ccc(-c3cccc(S(N)(=O)=O)c3-c3nn[nH]n3)cc2)CC1 [Example 51, 4′-[(4-methoxypiperidin-1-yl)carbonyl]-2-(2H-tetrazol-5-yl)biphenyl-3-sulfonamide]	2.74	>200	9.375	31.25	27.4	4190	–
NS(=O)(=O)c1cccc(-c2ccc(C(=O)N3CCC(O)CC3)cc2)c1-c1nn[nH]n1 [Example 52, 4′-[(4-hydroxypiperidin-1-yl)carbonyl]-2-(2H-tetrazol-5-yl)biphenyl-3-sulfonamide]	1.71	100	1.563	6.25	17.9	96.6	–
NS(=O)(=O)c1cccc(-c2ccc3c(c2)C(=O)NC3)c1-c1nn[nH]n1 [Example 53, 3-(3-oxo-2,3-dihydro-1H-isoindol-5-yl)-2-(2H-tetrazol-5-yl)benzenesulfonamide]	4.41	37.5	0.5859	6.25	73.3	37	–
CS(=O)(=O)CCn1cc(-c2cccc(S(N)(=O)=O)c2-c2nn[nH]n2)cn1 [Example 54, 3-{1-[2-(methylsulfonyl)ethyl]-1H-pyrazol-4-yl}-2-(2H-tetrazol-5-yl)benzenesulfonamide]	42.3	>200	2.344	18.75	205	937	–
CN(c1ncc(-c2cccc(S(N)(=O)=O)c2-c2nn[nH]n2)cn1)S(C)(=O)=O [Example 55, 3-{2-[methyl(methylsulfonyl)amino]pyrimidin-5-yl}-2-(2H-tetrazol-5-yl)benzenesulfonamide]	3.48	200	1.953	12.5	52.7	144	–
NS(=O)(=O)c1cccc(-c2ccc3c(c2)OCCO3)c1-c1nn[nH]n1 [Example 56, 3-(2,3-dihydro-1,4-benzodioxin-6-yl)-2-(2H-tetrazol-5-yl)benzenesulfonamide]	1.83	200	2.344	14.06	13.2	44	–
CNS(=O)(=O)c1ccc(-c2cccc(S(N)(=O)=O)c2-c2nn[nH]n2)cc1 [Example 57, N~4~-′-methyl-2-(2H-tetrazol-5-yl)biphenyl-3,4′-disulfonamide]	4.19	25	1.563	4.688	28.9	29.7	–
CS(=O)(=O)c1ccc(-c2cccc(S(N)(=O)=O)c2-c2nn[nH]n2)cn1 [Example 58, 3-[6-(methylsulfonyl)pyridin-3-yl]-2-(2H-tetrazol-5-yl)benzenesulfonamide]	14.5	100	0.5859	12.5	227	190	–
CN(C)S(=O)(=O)c1ccc(-c2cccc(S(N)(=O)=O)c2-c2nn[nH]n2)cc1 [Example 59, N~4~′,N~4~′-dimethyl-2-(2H-tetrazol-5-yl)biphenyl-3,4′-disulfonamide]	4.38	200	2.344	6.25	36.1	95	–
NS(=O)(=O)c1cccc(-c2ccc(S(=O)(=O)NC3CC3)cc2)c1-c1nn[nH]n1 [Example 60, N~4~′-cyclopropyl-2-(2H-tetrazol-5-yl)biphenyl-3,4′-disulfonamide]	3.17	75	3.906	4.688	16.5	27.8	–
NS(=O)(=O)c1ccc(-c2cccc(S(N)(=O)=O)c2-c2nn[nH]n2)cc1 [Example 61, 2-(2H-tetrazol-5-yl)biphenyl-3,4′-disulfonamide]	6.34	25	0.5859	6.25	58	–	62
NS(=O)(=O)c1cccc(C2=CCSCC2)c1-c1nn[nH]n1 [Example 62, 3-(3,6-dihydro-2H-thiopyran-4-yl)-2-(2H-tetrazol-5-yl)benzenesulfonamide]	8.47	100	1.563	100	211	186	–
NS(=O)(=O)c1cccc(C2=CCCOC2)c1-c1nn[nH]n1 [Example 63, 3-(5,6-dihydro-2H-pyran-3-yl)-2-(2H-tetrazol-5-yl)benzenesulfonamide]	48.9	100	0.7813	50	1560	1320	–
N#CC1CC=C(c2cccc(S(N)(=O)=O)c2-c2nn[nH]n2)CC1 (stereo not drawn) [Example 64, 3-(4-cyanocyclohex-1-en-1-yl)-2-(2H-tetrazol-5-yl)benzenesulfonamide]	13.4	200	1.953	50	248	588	–
CN1CCC=C(c2cccc(S(N)(=O)=O)c2-c2nn[nH]n2)C1 [Example 65, 3-(1-methyl-1,2,5,6-tetrahydropyridin-3-yl)-2-(2H-tetrazol-5-yl)benzenesulfonamide]	905	>200	4.688	>200	20000	4990	–
NS(=O)(=O)c1cccc(-c2ccc3ncccc3c2)c1-c1nn[nH]n1 [Example 66, 3-quinolin-6-yl-2-(2H-tetrazol-5-yl)benzenesulfonamide]	1.1	75	0.7813	18.75	140	29.1	–
Cn1nnc2ccc(-c3cccc(S(N)(=O)=O)c3-c3nn[nH]n3)cc21 [Example 67, 3-(1-methyl-1H-benzotriazol-6-yl)-2-(2H-tetrazol-5-yl)benzenesulfonamide]	2.16	62.5	2.344	75	911	57	–
